Data on 7 molecules can be found in patent US10421779B2, “Carbazole compound having anti-virus activity” (priority 2016, dated 2019).

A value given as a limit tells only on which side of the number the result lay.

Holding throughout (assay type): cell-based
Experiment [1] concerns HCV genotype 1 b (HCV replicon system). As to the kind of experiment: HCV replicon system genotype 1b, Renilla luciferase activity. Conditions: Hepatitis C virus, 72 h; HCV genotype 1b replicon, Rluc, 3 days; read-out: Replicon EC50 1b type. In outline: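 Genotype 1b replicon carrying Renilla luciferase and 1b non-structural genes, treated with compound at various concentrations. Luciferase activity read after 3 days relative to control to derive EC50.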
For orientation: In antiviral work, replicon cells carry a viral genome segment that copies itself.

The subject of experiment [2] is hepatitis C virus mutant L31V of the NS5A region. As to the kind of experiment: Efficacy on resistant mutant L31V. Conditions: read-out: EC50 L31V. The text has this: (§1) As a mutant resistant to hepatitis C virus, L31V and Y93H of the NS5A region, and double mutants thereof were applied.
Experiment [3] relates to hepatitis C virus mutant Y93H of the NS5A region. As to the kind of experiment: Efficacy on resistant mutant Y93H. Conditions: read-out: EC50 Y93H.
Excerpt: as §1

Experiment [4] deals with hepatitis C virus double mutant L31V and Y93H of the NS5A region. As to the kind of experiment: Efficacy on resistant double mutant (L31V and Y93H). Conditions: read-out: EC50 Double mutant.
Excerpt: as §1

As a reminder, the EC50 is the midpoint of the concentration-response curve. With `COC(=O)N[C@@H](C(=O)N1CCC[C@H]1C(=O)Nc1ccc2c3ccc(NC(=O)[C@@H]4CCCN4C(=O)[C@H](NC(=O)OC)c4ccccc4)cc3n(C(C)c3ccccc3)c2c1)c1ccccc1` (stereo partly drawn) [Example 15, dimethyl ((1R,1′R)-((2S,2′S)-(((9-(1-phenylethyl)-9H-carbazole-2,7-diyl)bis(azanediyl))bis(carbonyl))bis(pyrrolidine-2,1-diyl))bis(2-oxo-1-phenylethane-2,1-diyl))dicarbamate], the 50% effective concentration (EC50) in experiment [1] was 0.0157 nM; in experiment [2], below 0.1 nM; in experiment [3], 10 to 100 nM; in experiment [4], above 1000 nM.
In the same order, the values of `COC(=O)N[C@@H](C(=O)N1CCC[C@H]1C(=O)Nc1ccc2c3ccc(NC(=O)[C@@H]4CCCN4C(=O)[C@H](NC(=O)OC)c4ccccc4)cc3n(Cc3ccccc3)c2c1)c1ccccc1` [Example 13, dimethyl ((1R,1′R)-((2S,2′S)-(((9-benzyl-9H-carbazole-2,7-diyl)bis(azanediyl))bis(carbonyl))bis(pyrrolidine-2,1-diyl))bis(2-oxo-1-phenylethane-2,1-diyl))dicarbamate] are 0.0246 nM, 0.1 to 1 nM, 100 to 1000 nM and above 1000 nM.
With `COCCn1c2cc(NC(=O)[C@@H]3CCCN3C(=O)[C@H](NC(=O)OC)c3ccccc3)ccc2c2ccc(NC(=O)[C@@H]3CCCN3C(=O)[C@H](NC(=O)OC)c3ccccc3)cc21` [Example 21, dimethyl ((1R,1′R)-((2S,2′S)-(((9-(2-methoxyethyl)-9H-carbazole-2,7-diyl)bis(azanediyl))bis(carbonyl))bis(pyrrolidine-2,1-diyl))bis(2-oxo-1-phenylethane-2,1-diyl))dicarbamate], the 50% effective concentration (EC50) was 0.111 nM in experiment [1], 10 to 100 nM in experiment [2], 100 to 1000 nM in experiment [3] and above 1000 nM in experiment [4].
Turning to `COC(=O)N[C@@H](C(=O)N1CCC[C@H]1C(=O)Nc1ccc2c3ccc(NC(=O)[C@@H]4CCCN4C(=O)[C@H](NC(=O)OC)c4ccccc4)cc3n(CC3CC3)c2c1)c1ccccc1` [Example 16, dimethyl ((1R,1′R)-((2S,2′S)-(((9-(cyclopropylmethyl)-9H-carbazole-2,7-diyl)bis(azanediyl))bis(carbonyl))bis(pyrrolidine-2,1-diyl))bis(2-oxo-1-phenylethane-2,1-diyl))dicarbamate], the EC50 in experiment [1] was 0.0182 nM; in experiment [2] it was 1 to 10 nM; in experiment [3], 10 to 100 nM; in experiment [4] it was above 1000 nM.
For `COC(=O)N[C@@H](C(=O)N1CCC[C@H]1C(=O)Nc1ccc2c3ccc(NC(=O)[C@@H]4CCCN4C(=O)[C@H](NC(=O)OC)c4ccccc4)cc3n(Cc3ccncc3)c2c1)c1ccccc1` [Example 19, dimethyl ((1R,1′R)-((2S,2′S)-(((9-(pyridine-4-ylmethyl)-9H-carbazole-2,7-diyl)bis(azanediyl))bis(carbonyl))bis(pyrrolidine-2,1-diyl))bis(2-oxo-1-phenylethane-2,1-diyl))dicarbamate], the EC50 is 0.243 nM in experiment [1], 1 to 10 nM in experiment [2], above 1000 nM in experiment [3] and above 1000 nM in experiment [4].
Regarding `COC(=O)N[C@@H](C(=O)N1CCC[C@H]1C(=O)Nc1ccc2c3ccc(NC(=O)[C@@H]4CCCN4C(=O)[C@H](NC(=O)OC)c4ccccc4)cc3n(Cc3ccc(OC)cc3)c2c1)c1ccccc1` [Example 14, dimethyl ((1R,1′R)-((2S,2′S)-(((9-(4-methoxybenzyl)-9H-carbazole-2,7-diyl)bis(azanediyl))bis(carbonyl))bis(pyrrolidine-2,1-diyl))bis(2-oxo-1-phenylethane-2,1-diyl))dicarbamate], the EC50 in experiment [1] was 0.0203 nM; in experiment [2], 0.1 to 1 nM; in experiment [3], 100 to 1000 nM; in experiment [4], above 1000 nM.
As for `COC(=O)N[C@@H](C(=O)N1CCC[C@H]1C(=O)Nc1ccc2c3ccc(NC(=O)[C@@H]4CCCN4C(=O)[C@H](NC(=O)OC)c4ccccc4)cc3n(Cc3cccc(C)n3)c2c1)c1ccccc1` [Example 20, dimethyl ((1R,1′R)-((2S,2′S)-(((9-((6-methylpyridine-2-yl)methyl)-9H-carbazole-2,7-diyl)bis(azanediyl))bis(carbonyl))bis(pyrrolidine-2,1-diyl))bis(2-oxo-1-phenylethane-2,1-diyl))dicarbamate], the EC50 in experiment [1] is 0.222 nM; in experiment [2], 10 to 100 nM; in experiment [3] it was above 1000 nM; in experiment [4] it was above 1000 nM.
